Measured values published in ChEMBL document CHEMBL2157966, “Elevation of cellular O-GlcNAcylation level by a potent and selective O-GlcNAcase inhibitor based on tetrahydroimidazopyridine scaffold” (Bioorg Med Chem Lett, 2012).
Activity calls are given as the source filed them. No cut-off for these calls is given here.

Legend:
[1] = molecular target: T1, Protein O-GlcNAcase (Homo sapiens) (UniProt O60502); experiment: Inhibition of human OGA at 100 uM
T1 sequence (whole entry): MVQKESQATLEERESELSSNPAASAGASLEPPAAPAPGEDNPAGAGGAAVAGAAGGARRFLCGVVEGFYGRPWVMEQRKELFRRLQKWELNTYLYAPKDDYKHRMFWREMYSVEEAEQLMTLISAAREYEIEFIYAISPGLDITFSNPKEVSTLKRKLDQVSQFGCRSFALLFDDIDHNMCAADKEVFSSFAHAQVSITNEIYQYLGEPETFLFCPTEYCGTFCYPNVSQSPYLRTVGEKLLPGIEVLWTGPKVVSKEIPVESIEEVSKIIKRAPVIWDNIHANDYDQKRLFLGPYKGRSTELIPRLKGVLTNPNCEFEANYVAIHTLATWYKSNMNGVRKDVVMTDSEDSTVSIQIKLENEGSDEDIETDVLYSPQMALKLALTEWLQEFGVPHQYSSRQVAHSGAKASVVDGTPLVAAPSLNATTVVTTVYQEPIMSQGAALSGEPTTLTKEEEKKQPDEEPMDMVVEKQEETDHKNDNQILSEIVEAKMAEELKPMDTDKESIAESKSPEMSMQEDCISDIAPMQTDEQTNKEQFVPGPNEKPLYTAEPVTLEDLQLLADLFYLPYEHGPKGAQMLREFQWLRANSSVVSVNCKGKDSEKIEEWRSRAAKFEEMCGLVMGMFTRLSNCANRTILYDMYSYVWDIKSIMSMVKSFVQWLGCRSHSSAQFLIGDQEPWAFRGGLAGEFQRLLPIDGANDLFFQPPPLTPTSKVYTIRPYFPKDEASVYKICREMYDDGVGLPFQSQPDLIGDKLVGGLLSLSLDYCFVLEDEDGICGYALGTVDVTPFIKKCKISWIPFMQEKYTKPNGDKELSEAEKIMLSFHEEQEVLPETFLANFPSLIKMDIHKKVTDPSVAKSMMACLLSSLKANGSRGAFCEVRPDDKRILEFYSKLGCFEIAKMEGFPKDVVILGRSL

Protein O-GlcNAcase = molecular target: T2, Protein O-GlcNAcase (Homo sapiens, UniProt O60502); experiment: Competitive inhibition of human OGA using 4-MU-GlcNAc as substrate after 10 mins by Lineweaver Burk plot analysis
T2 sequence (O60502 whole entry): T1 sequence (whole entry)

[2] = molecular target: T1, Protein O-GlcNAcase (Homo sapiens); experiment: Inhibition of OGA in human SH-SY5Y cells assessed as increase in protein O-GlcNAcylation level after 24 hrs by Western blot analysis; type: cell-based
[3] = molecular target: T1, Protein O-GlcNAcase (Homo sapiens); experiment: Inhibition of OGA in human SH-SY5Y cells assessed as increase in protein O-GlcNAcylation level at 10 uM after 24 hrs by Western blot analysis; type: cell-based
[4] = molecular target: T3, Beta-hexosaminidase subunit alpha (Homo sapiens, UniProt P06865); experiment: Inhibition of human Hex A using 4-MU-GlcNAc as substrate after 10 mins by Lineweaver Burk plot analysis
T3 sequence (P06865 whole entry): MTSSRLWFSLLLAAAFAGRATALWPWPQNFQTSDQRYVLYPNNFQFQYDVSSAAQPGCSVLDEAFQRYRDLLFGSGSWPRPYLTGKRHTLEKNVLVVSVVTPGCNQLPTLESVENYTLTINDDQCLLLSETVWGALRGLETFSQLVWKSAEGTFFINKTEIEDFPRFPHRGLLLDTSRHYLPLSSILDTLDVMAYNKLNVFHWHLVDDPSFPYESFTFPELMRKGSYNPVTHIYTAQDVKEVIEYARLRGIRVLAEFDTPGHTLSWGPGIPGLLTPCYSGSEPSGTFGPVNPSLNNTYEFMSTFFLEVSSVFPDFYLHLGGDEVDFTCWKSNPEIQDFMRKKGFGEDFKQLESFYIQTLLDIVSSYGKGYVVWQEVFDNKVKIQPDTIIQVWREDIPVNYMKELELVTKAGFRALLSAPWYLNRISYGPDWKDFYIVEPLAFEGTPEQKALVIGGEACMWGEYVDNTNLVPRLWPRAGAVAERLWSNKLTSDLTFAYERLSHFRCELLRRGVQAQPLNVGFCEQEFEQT

Row | inhibition [1] [%] | Structure (SMILES) | also measured
1 | 28.3 | Cc1ccc(CCc2cn3c(n2)[C@H](O)[C@@H](O)[C@H](O)[C@H]3CO)cc1 | 
2 | 2.2 | CC(C)(CCc1cn2c(n1)[C@H](O)[C@@H](O)[C@H](O)[C@H]2CO)C(=O)Nc1ccccc1 | 
3 | 56.6 | OC[C@@H]1[C@@H](O)[C@H](O)[C@@H](O)c2nc(CCc3ccc(C4CCCCC4)cc3)cn21 | 
4 | 15.3 | CCCCCCCCc1cn2c(n1)[C@H](O)[C@@H](O)[C@H](O)[C@H]2CO | 
5 | 84.8 | OC[C@@H]1[C@@H](O)[C@H](O)[C@@H](O)c2nc(CCc3ccc(-c4ccccc4)cc3)cn21 | Ki (Protein O-GlcNAcase): 5.9 µM; inhibition [2]: Dose-dependent effect; inhibition [3]: Active; Ki [4]: 163 µM
6 | 54.1 | COc1ccc(CCc2cn3c(n2)[C@H](O)[C@@H](O)[C@H](O)[C@H]3CO)cc1 | 
7 | 26.1 | OC[C@@H]1[C@@H](O)[C@H](O)[C@@H](O)c2nc(CCc3ccc(F)cc3)cn21 | 
8 | 17.1 | O=C(CCc1cn2c(n1)[C@H](O)[C@@H](O)[C@H](O)[C@H]2CO)Nc1ccccc1 | 
9 | 0.4 | CC(C)(C)CCc1cn2c(n1)[C@H](O)[C@@H](O)[C@H](O)[C@H]2CO | 
10 | 6.8 | OC[C@@H]1[C@@H](O)[C@H](O)[C@@H](O)c2nc(CCc3ccccc3)cn21 | 

Row | Structure (SMILES) | inhibition [1] [%] | also measured
11 | OC[C@@H]1[C@@H](O)[C@H](O)[C@@H](O)c2nccn21 | 6.2 | 
